# Measured values: patent publication US20060069132A1, “Azolecarboxamide herbicides” (priority 2004, published 2006)
# Assays:
# lambsquarters = experiment: Test B pre-/postemergence herbicide test; assay type: in vivo, Chenopodium album; details: 125 g ai/ha
# How it was run: (§1)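 Visual rating, 0 (no effect) to 100 (complete control), versus untreated controls after 13–15 d in greenhouse. Pre- and postemergence applications (postemergence plants 2–18 cm, 1–4 leaves); flooded paddy arm at 2-leaf stage. Compounds in non-phytotoxic solvent plus surfactant.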
# giant foxtail = experiment: Test B pre-/postemergence herbicide test; assay type: in vivo, Setaria faberi
# How it was run: as §1
# blackgrass = experiment: Test B postemergence herbicide test; assay type: in vivo, Alopecurus myosuroides; details: Alopecurus myosuroides, post-emergence, 336 h, read-out: Blackgrass plant response rating
# How it was run: (§2)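 After treating 2-leaf paddy plants or 2–18 cm postemergence plants (1 to 4 leaves) with formulated chemical, researchers kept them in a greenhouse for 13–15 days. Effects were judged visually versus controls: 0 indicates none, 100 total control.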
# [1] = system: small flower umbrella sedge; experiment: Test B flooded paddy test; assay type: in vivo, Cyperus difformis; details: Cyperus difformis, 336 h, 1000 g ai/ha, scale 0 to 100 (0 no effect, 100 complete control), read-out: Sedge, Umbrella plant response rating
# How it was run: as §2
# wild oat = experiment: Test B postemergence herbicide test; assay type: in vivo, Avena fatua; details: Avena fatua, post-emergence, 336 h; 125 g ai/ha; visual rating, scale 0 (no effect) to 100 (complete control); read-out: Oat, Wild plant response rating
# How it was run: (§3)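 Formulated test chemicals went onto postemergence plants measuring 2 to 18 cm, at one to four leaves. For the paddy assay, species had reached two leaves. Scoring took place 13–15 days later by eye, relative to untreated plants, using 0 for no effect up to 100 for full control.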
# cocklebur = experiment: Test B pre-/postemergence herbicide test; assay type: in vivo, Xanthium strumarium
# How it was run: (§4)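 Flooded paddy rice and barnyardgrass were treated at the 2-leaf stage; upland plantings received compound either on sown seed or on 1- to 4-leaf seedlings. All were kept 13–15 days in a greenhouse and scored visually, 0–100, relative to untreated plants.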
# wheat = experiment: Test B postemergence herbicide test; assay type: in vivo, Triticum aestivum; details: Triticum aestivum, post-emergence, 336 h, 125 g ai/ha; visual rating, scale 0 (no effect) to 100 (complete control); read-out: Wheat plant response rating
# How it was run: as §3
# corn = experiment: Test B pre-/postemergence herbicide test; assay type: in vivo, Zea mays
# How it was run: as §1
# large crabgrass = experiment: Test B pre-/postemergence herbicide test; assay type: in vivo, Digitaria sanguinalis
# How it was run: as §1
# barnyardgrass [2] = experiment: Test B flooded paddy test; assay type: in vivo, Echinochloa crus-galli; details: Echinochloa crus-galli, 336 h, 1000 g ai/ha, scale 0 to 100 (0 no effect, 100 complete control), read-out: Barnyardgrass plant response rating
# How it was run: as §2
# rice = experiment: Test B flooded paddy test; assay type: in vivo, Oryza sativa; details: Oryza sativa, 336 h, 1000 g ai/ha, scale 0 to 100 (0 no effect, 100 complete control), read-out: Rice plant response rating
# How it was run: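 Read-out: visual comparison with controls, scored 0 to 100, where 100 means complete control and 0 no effect. Formulated chemicals were applied postemergence to plants 2–18 cm tall (1- to 4-leaf), or to flooded-paddy plants at the 2-leaf stage, then held 13 to 15 days under glass.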
# Surinam grass = experiment: Test B pre-/postemergence herbicide test; assay type: in vivo, Urochloa decumbens; details: 125 g ai/ha
# How it was run: as §1
# ducksalad = experiment: Test B flooded paddy test; assay type: in vivo, Heteranthera limosa; details: Heteranthera limosa, 336 h, 1000 g ai/ha, scale 0 to 100 (0 no effect, 100 complete control), read-out: Ducksalad plant response rating
# How it was run: as §2
# morningglory = experiment: Test B pre-/postemergence herbicide test; assay type: in vivo, Ipomoea coccinea; details: 125 g ai/ha
# How it was run: as §4
# pigweed = experiment: Test B pre-/postemergence herbicide test; assay type: in vivo, Amaranthus retroflexus; details: 125 g ai/ha
# How it was run: as §1
# barnyardgrass [3] = experiment: Test B pre-/postemergence herbicide test; assay type: in vivo, Echinochloa crus-galli
# How it was run: as §4
# velvetleaf = experiment: Test B pre-/postemergence herbicide test; assay type: in vivo, Abutilon theophrasti; details: 125 g ai/ha
# How it was run: as §1
# [4] = 0 is no effect, 100 is complete control, preemergence
# [5] = 125 g ai/ha, 0 is no effect, 100 is complete control, preemergence
smiles,measurement,setting,value
"CCNC(=O)c1cccc(NC(=O)c2nn(C(C)(C)C)nc2CC)c1 [Compound 365, 2-(1,1-dimethylethyl)-5-ethyl-N-[3-[(ethylamino)carbonyl]phenyl]-2H-1,2,3-triazole-4-carboxamide]","Plant response rating (0 to 100 scale), Lambsquarters",lambsquarters; [4],100
same,pest or weed control at 125 g/ha,"lambsquarters; Chenopodium album, post-emergence, 336 h, visual rating, scale 0 (no effect) to 100 (complete control), read-out: Lambsquarters plant response rating",90%
same,"Plant response rating (0 to 100 scale), Foxtail, Giant",giant foxtail; [5],100
same,pest or weed control at 125 g/ha,"giant foxtail; Setaria faberi, post-emergence, 336 h, 125 g ai/ha, visual rating, scale 0 (no effect) to 100 (complete control), read-out: Foxtail, Giant plant response rating",20%
same,pest or weed control at 500 g/ha,"giant foxtail; Setaria faberi, post-emergence, 336 h, postemergence, 500 g ai/ha, scale 0 to 100, 0 is no effect, 100 is complete control, read-out: Foxtail, Giant plant response rating",70%
same,pest or weed control at 125 g/ha,"blackgrass; 125 g ai/ha, visual rating, scale 0 (no effect) to 100 (complete control)",40%
same,pest or weed control at 500 g/ha,"blackgrass; postemergence, 500 g ai/ha, scale 0 to 100, 0 is no effect, 100 is complete control",90%
same,pest or weed control at 1000 g/ha,[1],90%
same,pest or weed control at 125 g/ha,wild oat,30%
same,"Plant response rating (0 to 100 scale), Cocklebur",cocklebur; [5],10
same,pest or weed control at 125 g/ha,"cocklebur; Xanthium strumarium, post-emergence, 125 g ai/ha, visual rating, scale 0 (no effect) to 100 (complete control), read-out: Cocklebur plant response rating",20%
same,pest or weed control at 500 g/ha,"cocklebur; Xanthium strumarium, post-emergence, postemergence, 500 g ai/ha, scale 0 to 100, 0 is no effect, 100 is complete control, read-out: Cocklebur plant response rating",60%
same,plant injury at 125 g/ha,wheat,20%
same,"Plant response rating (0 to 100 scale), Corn",corn; [5],90
same,plant injury at 125 g/ha,"corn; Zea mays, post-emergence, 125 g ai/ha, visual rating, scale 0 (no effect) to 100 (complete control), read-out: Corn plant response rating",0%
same,plant injury at 500 g/ha,"corn; Zea mays, post-emergence, postemergence, 500 g ai/ha, scale 0 to 100, 0 is no effect, 100 is complete control, read-out: Corn plant response rating",20%
same,"Plant response rating (0 to 100 scale), Crabgrass, Large",large crabgrass; [5],100
same,pest or weed control at 125 g/ha,"large crabgrass; Digitaria sanguinalis, post-emergence, 125 g ai/ha, visual rating, scale 0 (no effect) to 100 (complete control), read-out: Crabgrass, Large plant response rating",0%
same,pest or weed control at 500 g/ha,"large crabgrass; Digitaria sanguinalis, post-emergence, postemergence, 500 g ai/ha, scale 0 to 100, 0 is no effect, 100 is complete control, read-out: Crabgrass, Large plant response rating",80%
same,pest or weed control at 1000 g/ha,barnyardgrass [2],90%
same,plant injury at 1000 g/ha,rice,90%
same,"Plant response rating (0 to 100 scale), Surinam Grass",Surinam grass; [4],70
same,pest or weed control at 125 g/ha,"Surinam grass; Urochloa decumbens, post-emergence, visual rating, scale 0 (no effect) to 100 (complete control), read-out: Surinam Grass plant response rating",10%
same,pest or weed control at 1000 g/ha,ducksalad,90%
same,"Plant response rating (0 to 100 scale), Morningglory",morningglory; [4],50
same,pest or weed control at 125 g/ha,"morningglory; Ipomoea, post-emergence, 336 h, visual rating, scale 0 (no effect) to 100 (complete control), read-out: Morningglory plant response rating",80%
same,"Plant response rating (0 to 100 scale), Pigweed",pigweed; [4],100
same,pest or weed control at 125 g/ha,"pigweed; Amaranthus retroflexus, post-emergence, 336 h, visual rating, scale 0 (no effect) to 100 (complete control), read-out: Pigweed plant response rating",40%
same,"Plant response rating (0 to 100 scale), Barnyardgrass",barnyardgrass [3]; [5],90
same,pest or weed control at 125 g/ha,"barnyardgrass [3]; Echinochloa crus-galli, post-emergence, 125 g ai/ha, visual rating, scale 0 (no effect) to 100 (complete control), read-out: Barnyardgrass plant response rating",0%
same,pest or weed control at 500 g/ha,"barnyardgrass [3]; Echinochloa crus-galli, post-emergence, postemergence, 500 g ai/ha, scale 0 to 100, 0 is no effect, 100 is complete control, read-out: Barnyardgrass plant response rating",10%
same,"Plant response rating (0 to 100 scale), Velvetleaf",velvetleaf; [4],50
same,pest or weed control at 125 g/ha,"velvetleaf; Abutilon theophrasti, post-emergence, 336 h, visual rating, scale 0 (no effect) to 100 (complete control), read-out: Velvetleaf plant response rating",10%
